Laboratory results: PubChem BioAssay AID2060900 (Molecular Pharmacology Branch, DTP, NCI, 2025)

Each molecule was assayed on 521955-158-R2-J5-PDC complex spheroids, viability (assay: Anticancer human tumor 521955-158-R2-J5-PDC patient-derived pancreatic carcinoma cell line growth inhibition [RAS]). Settings: second compound 0.01 µM; first compound 1 µM; active compounds read low.
Summary of the method: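 Multi-cell-type spheroids: tumor cells plus HUVEC endothelial cells and mesenchymal stem cells. RAS-pathway inhibitors were combined with targeted agents, each dosed in half-log steps down from clinical Cmax, or from 10 microM when Cmax was unknown.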
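Also: spheroids also contain HUVEC endothelial cells and mesenchymal stem cells as stroma; compound exposure lasted seven days before the viability read.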

Compound | viability, T/C
CCC(CC)c1cc(NC2CCC(N)C2)n2nccc2n1 (configuration not stated) + C=CC(=O)N1CCN(c2nc(OCC3CCCN3C)nc3c(F)c(-c4nc(N)cc(C)c4C(F)(F)F)c(Cl)cc23)C(C)C1 | 128%
CCN1CCN(Cc2ccc(Nc3ncc(F)c(-c4cc(F)c5nc(C)n(C(C)C)c5c4)n3)nc2)CC1 + C=CC(=O)N1CCN(c2nc(OCC3CCCN3C)nc3c(F)c(-c4nc(N)cc(C)c4C(F)(F)F)c(Cl)cc23)C(C)C1 | 108%
Cc1nc(N2CCC3(CC2)COC(C)C3N)c(CO)nc1Sc1ccnc(N)c1Cl (configuration not stated) + C=CC(=O)N1CCN(c2nc(OCC3CCCN3C)nc3c(F)c(-c4nc(N)cc(C)c4C(F)(F)F)c(Cl)cc23)C(C)C1 | 64.2%
NC1c2ccccc2OC12CCN(c1cnc3c(N4CCCc5ncccc54)n[nH]c3n1)CC2 (configuration not stated) + C=CC(=O)N1CCN(c2nc(OCC3CCCN3C)nc3c(F)c(-c4nc(N)cc(C)c4C(F)(F)F)c(Cl)cc23)C(C)C1 | 63.2%

Same assay, conditions: second compound 0.01 µM; first compound 3.16 µM; active compounds read low

Compound | viability, T/C
CC1(O)CCCC1n1c(=O)c(C(F)F)cc2cnc(NC3CCN(S(C)(=O)=O)CC3)nc21 (configuration not stated) + C=CC(=O)N1CCN(c2nc(OCC3CCCN3C)nc3c(F)c(-c4nc(N)cc(C)c4C(F)(F)F)c(Cl)cc23)C(C)C1 | 112%
CCC(CC)c1cc(NC2CCC(N)C2)n2nccc2n1 (configuration not stated) + C=CC(=O)N1CCN(c2nc(OCC3CCCN3C)nc3c(F)c(-c4nc(N)cc(C)c4C(F)(F)F)c(Cl)cc23)C(C)C1 | 8.44%
Cc1nc(N2CCC3(CC2)COC(C)C3N)c(CO)nc1Sc1ccnc(N)c1Cl (configuration not stated) + C=CC(=O)N1CCN(c2nc(OCC3CCCN3C)nc3c(F)c(-c4nc(N)cc(C)c4C(F)(F)F)c(Cl)cc23)C(C)C1 | 60.3%
NC1c2ccccc2OC12CCN(c1cnc3c(N4CCCc5ncccc54)n[nH]c3n1)CC2 (configuration not stated) + C=CC(=O)N1CCN(c2nc(OCC3CCCN3C)nc3c(F)c(-c4nc(N)cc(C)c4C(F)(F)F)c(Cl)cc23)C(C)C1 | 53.7%

Same assay, conditions: second compound 0.01 µM; first compound 10 µM; active compounds read low

Compound | viability, T/C
CC1(O)CCCC1n1c(=O)c(C(F)F)cc2cnc(NC3CCN(S(C)(=O)=O)CC3)nc21 (configuration not stated) + C=CC(=O)N1CCN(c2nc(OCC3CCCN3C)nc3c(F)c(-c4nc(N)cc(C)c4C(F)(F)F)c(Cl)cc23)C(C)C1 | 17.2%
CCC(CC)c1cc(NC2CCC(N)C2)n2nccc2n1 (configuration not stated) + C=CC(=O)N1CCN(c2nc(OCC3CCCN3C)nc3c(F)c(-c4nc(N)cc(C)c4C(F)(F)F)c(Cl)cc23)C(C)C1 | 12.1%
Cc1nc(N2CCC3(CC2)COC(C)C3N)c(CO)nc1Sc1ccnc(N)c1Cl (configuration not stated) + C=CC(=O)N1CCN(c2nc(OCC3CCCN3C)nc3c(F)c(-c4nc(N)cc(C)c4C(F)(F)F)c(Cl)cc23)C(C)C1 | 63.3%
NC1c2ccccc2OC12CCN(c1cnc3c(N4CCCc5ncccc54)n[nH]c3n1)CC2 (configuration not stated) + C=CC(=O)N1CCN(c2nc(OCC3CCCN3C)nc3c(F)c(-c4nc(N)cc(C)c4C(F)(F)F)c(Cl)cc23)C(C)C1 | 65.6%

Same assay, conditions: second compound 0.0316 µM; first compound 0.00316 µM; active compounds read low

Compound | viability, T/C
CCN1CCN(Cc2ccc(Nc3ncc(F)c(-c4cc(F)c5nc(C)n(C(C)C)c5c4)n3)nc2)CC1 + C=CC(=O)N1CCN(c2nc(OCC3CCCN3C)nc3c(F)c(-c4nc(N)cc(C)c4C(F)(F)F)c(Cl)cc23)C(C)C1 | 101%

Same assay, conditions: second compound 0.0316 µM; first compound 0.01 µM; active compounds read low

Compound | viability, T/C
CCN1CCN(Cc2ccc(Nc3ncc(F)c(-c4cc(F)c5nc(C)n(C(C)C)c5c4)n3)nc2)CC1 + C=CC(=O)N1CCN(c2nc(OCC3CCCN3C)nc3c(F)c(-c4nc(N)cc(C)c4C(F)(F)F)c(Cl)cc23)C(C)C1 | 148%

Same assay, conditions: second compound 0.0316 µM; first compound 0.0316 µM; active compounds read low

Compound | viability, T/C
CC1(O)CCCC1n1c(=O)c(C(F)F)cc2cnc(NC3CCN(S(C)(=O)=O)CC3)nc21 (configuration not stated) + C=CC(=O)N1CCN(c2nc(OCC3CCCN3C)nc3c(F)c(-c4nc(N)cc(C)c4C(F)(F)F)c(Cl)cc23)C(C)C1 | 87.7%
CCC(CC)c1cc(NC2CCC(N)C2)n2nccc2n1 (configuration not stated) + C=CC(=O)N1CCN(c2nc(OCC3CCCN3C)nc3c(F)c(-c4nc(N)cc(C)c4C(F)(F)F)c(Cl)cc23)C(C)C1 | 99.1%
CCN1CCN(Cc2ccc(Nc3ncc(F)c(-c4cc(F)c5nc(C)n(C(C)C)c5c4)n3)nc2)CC1 + C=CC(=O)N1CCN(c2nc(OCC3CCCN3C)nc3c(F)c(-c4nc(N)cc(C)c4C(F)(F)F)c(Cl)cc23)C(C)C1 | 88.9%
Cc1nc(N2CCC3(CC2)COC(C)C3N)c(CO)nc1Sc1ccnc(N)c1Cl (configuration not stated) + C=CC(=O)N1CCN(c2nc(OCC3CCCN3C)nc3c(F)c(-c4nc(N)cc(C)c4C(F)(F)F)c(Cl)cc23)C(C)C1 | 73.8%
NC1c2ccccc2OC12CCN(c1cnc3c(N4CCCc5ncccc54)n[nH]c3n1)CC2 (configuration not stated) + C=CC(=O)N1CCN(c2nc(OCC3CCCN3C)nc3c(F)c(-c4nc(N)cc(C)c4C(F)(F)F)c(Cl)cc23)C(C)C1 | 65.8%

Same assay, conditions: second compound 0.0316 µM; first compound 0.1 µM; active compounds read low

Compound | viability, T/C
CC1(O)CCCC1n1c(=O)c(C(F)F)cc2cnc(NC3CCN(S(C)(=O)=O)CC3)nc21 (configuration not stated) + C=CC(=O)N1CCN(c2nc(OCC3CCCN3C)nc3c(F)c(-c4nc(N)cc(C)c4C(F)(F)F)c(Cl)cc23)C(C)C1 | 121%
CCC(CC)c1cc(NC2CCC(N)C2)n2nccc2n1 (configuration not stated) + C=CC(=O)N1CCN(c2nc(OCC3CCCN3C)nc3c(F)c(-c4nc(N)cc(C)c4C(F)(F)F)c(Cl)cc23)C(C)C1 | 127%
CCN1CCN(Cc2ccc(Nc3ncc(F)c(-c4cc(F)c5nc(C)n(C(C)C)c5c4)n3)nc2)CC1 + C=CC(=O)N1CCN(c2nc(OCC3CCCN3C)nc3c(F)c(-c4nc(N)cc(C)c4C(F)(F)F)c(Cl)cc23)C(C)C1 | 110%
Cc1nc(N2CCC3(CC2)COC(C)C3N)c(CO)nc1Sc1ccnc(N)c1Cl (configuration not stated) + C=CC(=O)N1CCN(c2nc(OCC3CCCN3C)nc3c(F)c(-c4nc(N)cc(C)c4C(F)(F)F)c(Cl)cc23)C(C)C1 | 90.9%
NC1c2ccccc2OC12CCN(c1cnc3c(N4CCCc5ncccc54)n[nH]c3n1)CC2 (configuration not stated) + C=CC(=O)N1CCN(c2nc(OCC3CCCN3C)nc3c(F)c(-c4nc(N)cc(C)c4C(F)(F)F)c(Cl)cc23)C(C)C1 | 79.6%

Same assay, conditions: second compound 0.0316 µM; first compound 0.316 µM; active compounds read low

Compound | viability, T/C
CC1(O)CCCC1n1c(=O)c(C(F)F)cc2cnc(NC3CCN(S(C)(=O)=O)CC3)nc21 (configuration not stated) + C=CC(=O)N1CCN(c2nc(OCC3CCCN3C)nc3c(F)c(-c4nc(N)cc(C)c4C(F)(F)F)c(Cl)cc23)C(C)C1 | 80.2%
CCC(CC)c1cc(NC2CCC(N)C2)n2nccc2n1 (configuration not stated) + C=CC(=O)N1CCN(c2nc(OCC3CCCN3C)nc3c(F)c(-c4nc(N)cc(C)c4C(F)(F)F)c(Cl)cc23)C(C)C1 | 122%
CCN1CCN(Cc2ccc(Nc3ncc(F)c(-c4cc(F)c5nc(C)n(C(C)C)c5c4)n3)nc2)CC1 + C=CC(=O)N1CCN(c2nc(OCC3CCCN3C)nc3c(F)c(-c4nc(N)cc(C)c4C(F)(F)F)c(Cl)cc23)C(C)C1 | 93.6%
